The source of these data is ChEMBL document CHEMBL4041477, “Design, synthesis and biological evaluation of novel 2,3-dihydroquinazolin- 4(1H)-one derivatives as potential fXa inhibitors” (Eur J Med Chem, 2017).

The structures appear in SMILES notation.

For data set [1], the target named is Coagulation factor X (Homo sapiens, UniProt P00742). Nature of the data set: Inhibition of human factor 10a using substrate S-2765 preincubated for 30 mins followed by substrate addition measured after 20 mins by micro plate reader method.
The test system of data set [2] is Plasma. The data set can be described thus: Anticoagulant activity in rabbit plasma assessed as increase in prothrombin time after 10 mins by coagulometer. It is filed as functional, Oryctolagus cuniculus.
The test system of data set [3] is Plasma. Nature of the data set: Anticoagulant activity in rabbit plasma assessed as increase in activated partial thromboplastin time after 10 mins by coagulometer. It is filed as functional, Oryctolagus cuniculus.
Data set [4] concerns the target Prothrombin (Homo sapiens, UniProt P00734). The data set can be described thus: Inhibition of human thrombin using substrate S-2238 preincubated for 30 mins followed by substrate addition measured after 20 mins by micro plate reader method.
Data set [5] concerns Rattus norvegicus. The data set can be described thus: Toxicity in po dosed rat assessed as increase in tail bleeding time administered 60 mins prior to tail transection measured over 30 mins. Format: organism-based. As to conditions: in vivo, 0.5 h.
The test system of data set [6] is Rattus norvegicus. Nature of the data set: Antithrombotic activity in rat model of arteriovenous shunt assessed as reduction in thrombus weight at 10 mg/kg, po administered 60 mins prior to shunt opening. Format: functional, organism-based.
The subject of data set [7] is Rattus norvegicus. Nature of the data set: Antithrombotic activity in po dosed rat model of arteriovenous shunt assessed as reduction in thrombus weight administered 60 mins prior to shunt opening. It is filed as functional, organism-based.

Chain of Coagulation factor X (P00742 41-179 limits assumed): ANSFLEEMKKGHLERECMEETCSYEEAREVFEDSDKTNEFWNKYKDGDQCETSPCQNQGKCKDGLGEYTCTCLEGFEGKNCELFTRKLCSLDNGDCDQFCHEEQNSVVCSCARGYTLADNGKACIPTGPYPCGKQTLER
Chain of Coagulation factor X (P00742 235-488 limits assumed): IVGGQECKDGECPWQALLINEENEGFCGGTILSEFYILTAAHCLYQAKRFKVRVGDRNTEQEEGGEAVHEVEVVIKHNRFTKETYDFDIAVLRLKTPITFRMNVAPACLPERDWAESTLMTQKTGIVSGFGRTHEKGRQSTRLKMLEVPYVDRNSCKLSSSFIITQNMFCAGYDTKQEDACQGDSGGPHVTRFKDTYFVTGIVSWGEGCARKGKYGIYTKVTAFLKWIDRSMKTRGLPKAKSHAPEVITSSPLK

For `COc1ccc(CC(=O)N2CN(c3ccc(N4CCCCC4=O)cc3)C(=O)c3cc(OC)ccc32)c(OC)c1`, in data set [1], 1270 nM corresponded to half-maximal inhibition (IC50). This counts as single-digit micromolar.

Regarding `COc1ccc(C(=O)N2CN(c3ccc(N4CCCCC4=O)cc3)C(=O)c3cc(OC)ccc32)cc1`, in data set [1], the IC50 amounted to 113000 nM.

For `COc1ccc(CC(=O)N2CN(c3ccc(N4CCCCC4=O)cc3)C(=O)c3cc(OC)ccc32)cc1`, the IC50 in data set [1] was 887 nM.

In data set [1], `COc1ccc2c(c1)C(=O)N(c1ccc(N3CCCCC3=O)cc1)CN2C(=O)Cc1cccc(Cl)c1` had an IC50 of 532 nM.

In the case of `COc1ccc2c(c1)C(=O)N(c1ccc(N3CCOCC3=O)cc1)CN2C(=O)Cc1ccc(Cl)cc1`, the IC50 in data set [1] amounted to 42 nM; in data set [4] it was 81000 nM. Moreover, the 2PT in data set [2] was 11.6 µM. For the same molecule, the 2aPTT in data set [3] stood at 16.1 µM.

As for `COc1ccc2c(c1)C(=O)N(c1ccc(N3CCCCC3=O)cc1)CN2C(=O)Cc1ccc(Cl)cc1`, the IC50 in data set [1] came out at 127 nM.

In data set [1], `COc1ccc2c(c1)C(=O)N(c1ccc(N3CCCCC3=O)cc1)CN2C(=O)c1ccc(Cl)cc1` returned an IC50 of 52000 nM.

Turning to `COc1ccc2c(c1)C(=O)N(c1ccc(N3CCCCC3=O)cc1)CN2C(=O)Cc1ccccc1`, the IC50 in data set [1] is 4060 nM.

As to `COc1ccc(NC(=O)c2ccc(C(=N)N(C)C)cc2)c(C(=O)Nc2ccc(Cl)cn2)c1` [BETRIXABAN], the Activity entry in data set [5] and in data set [6] was “Dose-dependent effect” in each case. For the same molecule, in data set [2], the 2PT stood at 2.4 µM. Moreover, the 2aPTT in data set [3] was 1.1 µM.

Molecule `COc1ccc(CC(=O)N2CN(c3ccc(N4CCOCC4=O)cc3)C(=O)c3cc(OC)ccc32)cc1` gave an IC50 in data set [1] of 717 nM.

In turn, `COc1ccc2c(c1)C(=O)N(c1ccc(N3CCOCC3=O)cc1)CN2C(=O)c1ccc(CCl)cc1` had an IC50 in data set [1] of 1410 nM.

Turning to `COc1ccc2c(c1)C(=O)N(c1ccc(N3CCCCC3=O)cc1)CN2C(=O)c1ccc(Cl)s1`, in data set [1], half-maximal inhibition (IC50) was put at 179000 nM.

`COc1ccc2c(c1)C(=O)N(c1ccc(N3CCCCC3=O)cc1)CN2C(=O)c1ccccc1` gave an IC50 in data set [1] of 546000 nM. This IC50 is about 3.1-fold higher than that of the molecule before.

`COc1ccc2c(c1)C(=O)N(c1ccc(-n3ccccc3=O)cc1)CN2C(=O)Cc1ccc(Cl)cc1` showed an IC50 in data set [1] of 165 nM.

Consider `COc1ccc2c(c1)C(=O)N(c1ccc(N3CCCCC3=O)cc1)CN2C(=O)Cc1ccc(NC(C)=O)cc1`, for which, in data set [1], the IC50 worked out at 234 nM.

Molecule `COc1ccc2c(c1)C(=O)N(c1ccc(N3CCCCC3=O)cc1)CN2C(=O)c1cccc(Cl)c1` showed an IC50 in data set [1] of 243000 nM. This IC50 lies about 1000-fold higher than the previous one.

In the case of `COc1ccc2c(c1)C(=O)N(c1ccc(N3CCOCC3=O)cc1)CN2C(=O)Cc1ccc(Cl)s1`, the Activity result in data set [5] and in data set [7] was “Dose-dependent effect” each time. The IC50 in data set [1] worked out at 21 nM; in data set [4] it was 67000 nM. For the same molecule, the 2PT in data set [2] was determined as 1.2 µM. Also, the 2aPTT in data set [3] amounted to 0.6 µM.

`COc1ccc2c(c1)C(=O)N(c1ccc(N3CCOCC3=O)cc1)CN2C(=O)Cc1ccc(Cl)c(Cl)c1` came in with an IC50 in data set [1] of 345 nM. That is a sub-micromolar value.

`COc1ccc2c(c1)C(=O)N(c1ccc(N3CCOCC3=O)cc1)CN2C(=O)Cc1ccc(Cl)cc1Cl`: the IC50 in data set [1] was determined as 498 nM.

For `COc1ccc2c(c1)C(=O)N(c1ccc(N3CCOCC3=O)cc1)CN2C(=O)Cc1ccc(Cl)cn1`, the IC50 in data set [1] came to 157 nM.

Take `COc1ccc2c(c1)C(=O)N(c1ccc(N3CCOCC3=O)cc1)CN2C(=O)CCc1ccc(Cl)cc1`: in data set [1], the IC50 turned out to be 2210 nM.

For the molecule `COc1cccc(C(=O)N2CN(c3ccc(N4CCCCC4=O)cc3)C(=O)c3cc(OC)ccc32)c1`, half-maximal inhibition in data set [1] (IC50) was put at 354000 nM.

In turn, `COc1ccc2c(c1)C(=O)N(c1ccc(N3CCCCC3=O)cc1)CN2C(=O)Cc1ccccc1Cl` yielded an IC50 in data set [1] of 1340 nM.

A word on the IC50: it is the concentration needed to halve the response being measured. Higher therefore signals weaker potency in that assay.
